The text below walks through data of BindingDB's records for doi:10.1016/s0960-894x(00)00312-7 (Signal Pharmaceuticals, 2000).

This assay concerns the target Protein c-Fos/Transcription factor Jun (Homo sapiens, UniProt P05412+P01100). As to the kind of experiment: Inhibition of AP-1 (activator protein-1) mediated transcriptional activation in Jurkat T-cells.

Protein c-Fos/Transcription factor Jun, sequence (P05412 whole entry): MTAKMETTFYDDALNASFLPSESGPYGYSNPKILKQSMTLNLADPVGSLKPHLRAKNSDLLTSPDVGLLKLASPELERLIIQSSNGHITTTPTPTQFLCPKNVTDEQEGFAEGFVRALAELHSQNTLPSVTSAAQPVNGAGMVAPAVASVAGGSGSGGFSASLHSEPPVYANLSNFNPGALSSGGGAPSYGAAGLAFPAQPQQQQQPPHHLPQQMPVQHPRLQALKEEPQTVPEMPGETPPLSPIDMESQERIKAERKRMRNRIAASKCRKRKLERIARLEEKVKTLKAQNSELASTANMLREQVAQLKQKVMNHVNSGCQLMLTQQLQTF
Protein c-Fos/Transcription factor Jun, sequence (P01100 whole entry): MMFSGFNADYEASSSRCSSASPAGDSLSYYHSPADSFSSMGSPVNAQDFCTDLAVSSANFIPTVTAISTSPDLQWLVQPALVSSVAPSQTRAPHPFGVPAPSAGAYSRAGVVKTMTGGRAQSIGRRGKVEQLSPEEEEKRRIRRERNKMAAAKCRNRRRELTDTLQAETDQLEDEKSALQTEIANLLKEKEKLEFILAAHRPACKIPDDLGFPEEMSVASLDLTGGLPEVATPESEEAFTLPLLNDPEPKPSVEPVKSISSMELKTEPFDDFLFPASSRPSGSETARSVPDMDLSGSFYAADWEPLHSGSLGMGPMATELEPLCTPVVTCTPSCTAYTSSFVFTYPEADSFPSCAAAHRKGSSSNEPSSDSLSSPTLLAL

One may read the IC50 as the concentration at which inhibition is half-maximal. Low values mean higher potency, high ones lower potency. Take `CCOC(=O)c1cnc(C)nc1NN1C(=O)C=C(C)C1=O` [2-Methyl-4-(3-methyl-2,5-dioxo-2,5-dihydro-pyrrol-1-ylamino)-pyrimidine-5-carboxylic acid ethyl ester]: the midpoint of inhibition, the IC50, lay at 16000 nM.
`CCOC(=O)c1cnc(-c2cc(Cl)nc(Cl)c2)nc1NN1C(=O)C=C(C)C1=O` [ethyl 2-(2,6-dichloropyridin-4-yl)-4-(3-methyl-2,5-dioxo-2H-pyrrol-1(5H)-ylamino)pyrimidine-5-carboxylate] showed an IC50 of 2000 nM.
With `CCOC(=O)c1cnc(-c2ccc(C)s2)nc1NN1C(=O)C=C(C)C1=O` [4-(3-Methyl-2,5-dioxo-2,5-dihydro-pyrrol-1-ylamino)-2-(5-methyl-thiophen-2-yl)-pyrimidine-5-carboxylic acid ethyl ester] the figure was 200 nM; with `CCOC(=O)c1cnc(-n2nc(C)cc2C)nc1NN1C(=O)C=C(C)C1=O` [ethyl 2-(3,5-dimethyl-1H-pyrazol-1-yl)-4-(3-methyl-2,5-dioxo-2H-pyrrol-1(5H)-ylamino)pyrimidine-5-carboxylate], 10000 nM.
Consider `CC1=CC(=O)N(Nc2nc(-c3cccs3)ncc2-c2nnc(C)o2)C1=O` [3-methyl-1-(5-(5-methyl-1,3,4-oxadiazol-2-yl)-2-(thiophen-2-yl)pyrimidin-4-ylamino)-1H-pyrrole-2,5-dione], for which the IC50 came to 300 nM.
Under `CCOC(=O)c1cnc(-c2cc(Cl)cc(Cl)c2)nc1NN1C(=O)C=C(C)C1=O` [ethyl 2-(3,5-dichlorophenyl)-4-(3-methyl-2,5-dioxo-2H-pyrrol-1(5H)-ylamino)pyrimidine-5-carboxylate] stands 300 nM.
Under `CCOC(=O)c1cnc(C(F)(F)F)nc1NN1C(=O)C(C)=C(C)C1=O` [ethyl 4-(3,4-dimethyl-2,5-dioxo-2H-pyrrol-1(5H)-ylamino)-2-(trifluoromethyl)pyrimidine-5-carboxylate] stands 10000 nM; under `CCOC(=O)c1cnc(-c2cccs2)nc1N(C)N1C(=O)C=C(C)C1=O` [ethyl 4-(methyl(3-methyl-2,5-dioxo-2H-pyrrol-1(5H)-yl)amino)-2-(thiophen-2-yl)pyrimidine-5-carboxylate], 1000 nM.
Under `CCOC(=O)c1cnc(CC)nc1NN1C(=O)C=C(C)C1=O` [2-Ethyl-4-(3-methyl-2,5-dioxo-2,5-dihydro-pyrrol-1-ylamino)-pyrimidine-5-carboxylic acid ethyl ester] stands 10000 nM; under `CCOC(=O)c1cnc(SC)nc1NN1C(=O)C=C(C)C1=O` [4-(3-Methyl-2,5-dioxo-2,5-dihydro-pyrrol-1-ylamino)-2-methylsulfanyl-pyrimidine-5-carboxylic acid ethyl ester], 200 nM; under `CCOC(=O)c1cnc(-c2cccs2)nc1NN1C(=O)C=C(C)C1=O` [ethyl 4-(3-methyl-2,5-dioxo-2H-pyrrol-1(5H)-ylamino)-2-(thiophen-2-yl)pyrimidine-5-carboxylate], 20 nM.
`CCOC(=O)c1cnc(-c2ccc(C(F)(F)F)cc2)nc1NN1C(=O)C=C(C)C1=O` [4-(3-Methyl-2,5-dioxo-2,5-dihydro-pyrrol-1-ylamino)-2-(4-trifluoromethyl-phenyl)-pyrimidine-5-carboxylic acid ethyl ester]: 400 nM corresponded to half-maximal inhibition (IC50).
With `CCOC(=O)c1cnc(-c2ccc(OC)cc2)nc1NN1C(=O)C=C(C)C1=O` [2-(4-Methoxy-phenyl)-4-(3-methyl-2,5-dioxo-2,5-dihydro-pyrrol-1-ylamino)-pyrimidine-5-carboxylic acid ethyl ester] the figure was 900 nM.
Under `CCOC(=O)c1cnc(-c2ccccc2)nc1N(C(C)=O)N1C(=O)C=C(C)C1=O` [4-[Acetyl-(3-methyl-2,5-dioxo-2,5-dihydro-pyrrol-1-yl)-amino]-2-phenyl-pyrimidine-5-carboxylic acid ethyl ester] stands 4000 nM; under `CCOC(=O)c1cnc(-c2ccc(Cl)s2)nc1NN1C(=O)C=C(C)C1=O` [ethyl 2-(5-chlorothiophen-2-yl)-4-(3-methyl-2,5-dioxo-2H-pyrrol-1(5H)-ylamino)pyrimidine-5-carboxylate], 300 nM; under `CC1=CC(=O)N(Nc2nc(-c3cccs3)ncc2-c2nc(C)co2)C1=O` [3-methyl-1-(5-(4-methyloxazol-2-yl)-2-(thiophen-2-yl)pyrimidin-4-ylamino)-1H-pyrrole-2,5-dione], 200 nM.
With `CC1=CC(=O)N(Nc2nc(-c3cccs3)ncc2-c2nnn(C)n2)C1=O` [3-methyl-1-(5-(2-methyl-2H-tetrazol-5-yl)-2-(thiophen-2-yl)pyrimidin-4-ylamino)-1H-pyrrole-2,5-dione] the figure was 200 nM.
Take `CC1=CC(=O)N(Nc2nc(-c3cccs3)ncc2C2=NCCO2)C1=O` [1-[5-(4,5-Dihydro-oxazol-2-yl)-2-thiophen-2-yl-pyrimidin-4-ylamino]-3-methyl-pyrrole-2,5-dione]: 200 nM corresponded to half-maximal inhibition (IC50).
Under `CCOC(=O)c1cnc(Oc2ccccc2)nc1NN1C(=O)C=C(C)C1=O` [ethyl 4-(3-methyl-2,5-dioxo-2H-pyrrol-1(5H)-ylamino)-2-phenoxypyrimidine-5-carboxylate] stands 15000 nM; under `CC1=CC(=O)N(Nc2nc(-c3cccs3)ncc2-c2cc(C)no2)C1=O` [3-methyl-1-(5-(3-methylisoxazol-5-yl)-2-(thiophen-2-yl)pyrimidin-4-ylamino)-1H-pyrrole-2,5-dione], 300 nM.
As to `CCOC(=O)c1cnc(-c2ccc(F)cc2)nc1NN1C(=O)C=C(C)C1=O` [ethyl 2-(4-fluorophenyl)-4-(3-methyl-2,5-dioxo-2H-pyrrol-1(5H)-ylamino)pyrimidine-5-carboxylate], the IC50 worked out at 700 nM.
With `CCOC(=O)c1cnc(C(F)(F)F)nc1NN1C(=O)C=C(C)C1=O` [4-(3-Methyl-2,5-dioxo-2,5-dihydro-pyrrol-1-ylamino)-2-trifluoromethyl-pyrimidine-5-carboxylic acid ethyl ester] the figure was 1000 nM; with `CCOC(=O)c1cnc(-c2ccncc2)nc1NN1C(=O)C=C(C)C1=O` [ethyl 4-(3-methyl-2,5-dioxo-2H-pyrrol-1(5H)-ylamino)-2-(pyridin-4-yl)pyrimidine-5-carboxylate], 6000 nM.
For `CCOC(=O)c1cnc(S(=O)(=O)c2ccccc2)nc1NN1C(=O)C=C(C)C1=O` [2-Benzenesulfonyl-4-(3-methyl-2,5-dioxo-2,5-dihydro-pyrrol-1-ylamino)-pyrimidine-5-carboxylic acid ethyl ester], it took 10000 nM to reach half-maximal inhibition (IC50).
As to `CCOC(=O)c1cnc(CC2=CCCCC2)nc1NN1C(=O)C=C(C)C1=O` [2-Cyclohex-1-enylmethyl-4-(3-methyl-2,5-dioxo-2,5-dihydro-pyrrol-1-ylamino)-pyrimidine-5-carboxylic acid ethyl ester], the midpoint of inhibition, the IC50, lay at 2000 nM.
Under `CCOC(=O)c1cnc(-c2cc3ccccc3s2)nc1NN1C(=O)C=C(C)C1=O` [2-Benzo[b]thiophen-2-yl-4-(3-methyl-2,5-dioxo-2,5-dihydro-pyrrol-1-ylamino)-pyrimidine-5-carboxylic acid ethyl ester] stands 4000 nM.
With `CCOC(=O)c1cnc(C(C)(C)C)nc1NN1C(=O)C=C(C)C1=O` [ethyl 2-tert-butyl-4-(3-methyl-2,5-dioxo-2H-pyrrol-1(5H)-ylamino)pyrimidine-5-carboxylate] the figure was 1000 nM.
